Where two headings read alike, the source gives them in different places.
How the values were obtained:
[1] = test system: PRMI-8226; experiment: NCI antitumor screen (SRB); assay type: cell-based; conditions: Homo sapiens
[2] = test system: U251; experiment: NCI antitumor screen (SRB); assay type: cell-based; conditions: Homo sapiens
[3] = test system: SN12C; experiment: NCI antitumor screen (SRB); assay type: cell-based; conditions: Homo sapiens
[4] = test system: ACHN; experiment: NCI antitumor screen (SRB); assay type: cell-based; conditions: Homo sapiens
[5] = test system: HCT-116; experiment: NCI antitumor screen (SRB); assay type: cell-based; conditions: Homo sapiens
[6] = test system: HS 578 T; experiment: NCI antitumor screen (SRB); assay type: cell-based; conditions: Homo sapiens
[7] = test system: OVCAR-5; experiment: NCI antitumor screen (SRB); assay type: cell-based; conditions: Homo sapiens
[8] = test system: HL60 cells; experiment: Cell cycle analysis (PI, flow cytometry); assay type: cell-based, human; conditions: HL60, 10.0 µM, 24 h
Method: Antitumor agents can induce apoptosis by activating signalling pathways, leading to G2/M phase arrest[73]^,[74]. Flow cytometry is used to measure cell growth in different cell cycle phases (pre-G1, G1, S, and G2/M)[73]^,[74]. […]. We used the solvent DMSO as a negative control. Briefly, we incubated HL60 cells with 10 µM compounds 6, 9, 16, and 20 for 24 h. Compounds 6, 9, 16, and 20 interfered with the normal cell cycle of HL60 cells. […] […].
Cell cycle analysis was carried out similar to our previous report using the Leukaemia HL-60 cell line stained with the DNA fluorochrome PI and analysed by FACSCalibur flow cytometer[40]^,[74].
Using a method similar to that of our previous report, cell cycle analysis was carried out using Leukemia HL-60 cell line, stained with the DNA fluorochrome PI, and analyzed by FACSCalibur flow cytometer. Leukemia HL-60 cell was seeded at a density of 2 × 10^5 cells/well and incubated for 24 h in six-well plates. Fetal bovine serum (10%) was added, and the cells were incubated at 37°C in an atmosphere of 5% CO2. The medium was replaced with 1% (v/v) dimethyl sulfoxide (DMSO), containing 10.0 μM of compound 9. […]
Afterward, […]
the samples were analyzed using a FACSCalibur flow cytometer. […]
(AA) to PGH2. […]

[9] = test system: DU-145; experiment: NCI antitumor screen (SRB); assay type: cell-based; conditions: Homo sapiens
[10] = test system: A498; experiment: NCI antitumor screen (SRB); assay type: cell-based; conditions: Homo sapiens
[11] = test system: SK-MEL-28; experiment: NCI antitumor screen (SRB); assay type: cell-based, human
[12] = test system: SNB-75; experiment: NCI antitumor screen (SRB); assay type: cell-based; conditions: Homo sapiens
[13] = test system: RXF 393; experiment: NCI antitumor screen (SRB); assay type: cell-based; conditions: Homo sapiens
[14] = test system: A549/ATCC; experiment: NCI antitumor screen (SRB); assay type: cell-based; conditions: Homo sapiens
[15] = test system: HL-60(TB); experiment: cells; assay type: cell-based, human
[16] = test system: HL60 cells; experiment: Annexin V-FITC/PI apoptosis assay; assay type: cell-based, human; conditions: HL60, 10 µM, 24 h
Method: Apoptosis induction is the most important mechanism by which major chemotherapeutics kill cancer cells. Apoptosis causes cellular changes whereby the translocation of phosphatidylserine (PS) occurs through the plasma membrane from the inside to the outside. Annexin-V can bind to PS, which can be used as a sensitive probe for PS on the outer side of the plasma membrane. […] The AV/PI staining of HL60 cells was performed at a mixed molar concentration of 10 µM with compounds 6, 9, 16, and 20 for 24 h. Figure 4 and Table 5 show the results of treating HL60 cells with compounds 6, 9, 16, and 20 for 24 h.
According to our previous report, apoptosis induction was performed using the Leukaemia HL-60 cell line and well-established Annexin 5-FITC/PI detection kit. The cell line samples were analysed using FACSCalibur flow cytometer[40]^,[72]. […]
[(Ti-Tz)/Tz)] x 100 for concentration of which Ti ≤ Tz.
The induction of apoptosis was performed according to our previous report using Leukemia HL-
60 cell line and well-established Annexin 5-FITC/PI detection kit. The cell line samples were
analyzed using a FACSCalibur flow cytometer. […]

[17] = test system: OVCAR-8; parameters: method as in https://dtp.cancer.gov/dtpstandard/dwindex/index.jsp; conditions: reference drugs, ref https://dtp.cancer.gov/dtpstandard/dwindex/index.jsp; cited from earlier work
[18] = test system: IGROV1; parameters: method as in https://dtp.cancer.gov/dtpstandard/dwindex/index.jsp; conditions: reference drugs, ref https://dtp.cancer.gov/dtpstandard/dwindex/index.jsp; cited from earlier work
[19] = test system: ACHN; parameters: method as in https://dtp.cancer.gov/dtpstandard/dwindex/index.jsp; conditions: reference drugs, ref https://dtp.cancer.gov/dtpstandard/dwindex/index.jsp; cited from earlier work
[20] = test system: MCF7; parameters: method as in https://dtp.cancer.gov/dtpstandard/dwindex/index.jsp; conditions: reference drugs, ref https://dtp.cancer.gov/dtpstandard/dwindex/index.jsp; cited from earlier work
[21] = test system: SK-OV-3; parameters: method as in https://dtp.cancer.gov/dtpstandard/dwindex/index.jsp; conditions: reference drugs, ref https://dtp.cancer.gov/dtpstandard/dwindex/index.jsp; cited from earlier work
[22] = test system: OVCAR-4; parameters: method as in https://dtp.cancer.gov/dtpstandard/dwindex/index.jsp; conditions: reference drugs, ref https://dtp.cancer.gov/dtpstandard/dwindex/index.jsp; cited from earlier work
[23] = test system: OVCAR-3; parameters: method as in https://dtp.cancer.gov/dtpstandard/dwindex/index.jsp; conditions: reference drugs, ref https://dtp.cancer.gov/dtpstandard/dwindex/index.jsp; cited from earlier work
[24] = test system: MOLT-4; parameters: method as in https://dtp.cancer.gov/dtpstandard/dwindex/index.jsp; conditions: reference drugs, ref https://dtp.cancer.gov/dtpstandard/dwindex/index.jsp; cited from earlier work
[25] = test system: 786-0; parameters: method as in https://dtp.cancer.gov/dtpstandard/dwindex/index.jsp; conditions: reference drugs, ref https://dtp.cancer.gov/dtpstandard/dwindex/index.jsp; cited from earlier work
[26] = test system: prostate cancer tumour cell lines; conditions: cited from earlier work; for GI50: read-out: GI50 (subpanel average), reference drugs, ref https://dtp.cancer.gov/dtpstandard/dwindex/index.jsp; for CC50: read-out: LC50 (subpanel average), reference drugs, ref https://dtp.cancer.gov/dtpstandard/dwindex/index.jsp; for TGI (subpanel average): reference drugs, ref https://dtp.cancer.gov/dtpstandard/dwindex/index.jsp
[27] = test system: leukaemia tumour cell lines; conditions: cited from earlier work; for GI50: read-out: GI50 (subpanel average), reference drugs, ref https://dtp.cancer.gov/dtpstandard/dwindex/index.jsp; for CC50: read-out: LC50 (subpanel average), reference drugs, ref https://dtp.cancer.gov/dtpstandard/dwindex/index.jsp; for TGI (subpanel average): reference drugs, ref https://dtp.cancer.gov/dtpstandard/dwindex/index.jsp
[28] = test system: SK-MEL-5; parameters: method as in https://dtp.cancer.gov/dtpstandard/dwindex/index.jsp; conditions: reference drugs, ref https://dtp.cancer.gov/dtpstandard/dwindex/index.jsp; cited from earlier work
[29] = five concentrations 0.01-100 µM
[30] = one dose 10 µM, read-out: Growth inhibition percentage (GI%)

SMILES: CCN(CC)c1ccc(/C=N/NC(=O)c2ccc(S(C)(=O)=O)cc2)c(O)c1 [Compound 20]
- GI50 [1, 29]: 297 nM
- inhibition at 10 µM [1, 30]: 79%
- GI50 ([2]; U-251, five concentrations 0.01-100 µM): 137 nM
- inhibition at 10 µM ([2]; U-251, one dose 10 µM, read-out: Growth inhibition percentage (GI%)): 79.4%
- GI50 [3, 29]: 354 nM
- inhibition at 10 µM [3, 30]: 68.8%
- GI50 [4, 29]: 117 nM
- inhibition at 10 µM [4, 30]: 82.9%
- GI50 [5]: 121 nM
- inhibition at 10 µM ([5]; read-out: Growth inhibition percentage (GI%)): 81.6%
- GI50 [6, 29]: 11.7 µM
- inhibition at 10 µM [6, 30]: 32%
- GI50 [7, 29]: 6.48 µM
- inhibition at 10 µM [7, 30]: 67.5%
- %G0-G1 [8]: 36.28%
- %G2-M [8]: 34.29%
- %Pre-G1 [8]: 24.31%
- %S [8]: 29.43%
- GI50 [9, 29]: 144 nM
- inhibition at 10 µM [9, 30]: 75.5%
- GI50 [10, 29]: 9.81 µM
- inhibition at 10 µM [10, 30]: 54.7%
- inhibition at 10 µM ([11]; Homo sapiens, SK-MEL-28, SK-MEL-28, one dose 10 µM, read-out: Growth inhibition percentage (GI%)): 72.9%
- GI50 ([11]; Homo sapiens, SK-MEL-28, five concentrations 0.01-100 µM): 340 nM
- Growth inhibition percentage (GI%) ([11]; SK-MEL-28, one dose 10 µM): 72.8%
- GI50 [12, 29]: 228 nM
- inhibition at 10 µM [12, 30]: 44.8%
- GI50 [13, 29]: 271 nM
- inhibition at 10 µM [13, 30]: 71.5%
- GI50 [14, 29]: 402 nM
- inhibition at 10 µM [14, 30]: 87.5%
- Growth inhibition percentage (GI%) ([15]; HL-60(TB), one dose 10 µM): >100%
- inhibition at 10 µM ([15]; Homo sapiens, HL-60, HL-60(TB), one dose 10 µM, read-out: Growth inhibition percentage (GI%)): 100%
- GI50 ([15]; Homo sapiens, HL-60(TB), five concentrations 0.01-100 µM): 164 nM
- Apoptosis, early [16]: 8.42%
- Apoptosis, late [16]: 12.66%
- Apoptosis, total (annexin V-FITC positive cells) [16]: 24.31%
- Necrosis [16]: 3.23%

SMILES: C#Cc1cccc(Nc2ncnc3cc(OCCOC)c(OCCOC)cc23)c1 [Erlotinib, erlotinib]
- GI50 [17]: 7.94 µM
- GI50 [18]: 316 nM
- GI50 [19]: 199 nM
- GI50 [20]: 100 µM
- GI50 [21]: 500 nM
- GI50 [22]: 10 µM
- GI50 [23]: 3.98 µM
- GI50 [24]: 25.1 µM
- GI50 [25]: 10 µM
- GI50 [26]: 20.9 µM
- CC50 [26]: > 100 µM
- TGI (subpanel average) [26]: c (Compounds showed values ≥ 100 µM)
- GI50 [27]: 27800 nM
- CC50 [27]: > 100 µM
- TGI (subpanel average) [27]: 96.57 µM

SMILES: COc1cc2ncnc(Nc3ccc(F)c(Cl)c3)c2cc1OCCCN1CCOCC1 [Gefitinib, gefitinib]
- GI50 [18]: 3160 nM
- GI50 [19]: 158 nM
- GI50 [28]: 3.16 µM
- GI50 [21]: 1000 nM
- GI50 [24]: 2 µM
- GI50 [25]: 3.16 µM
- GI50 [26]: 3.29 µM
- TGI (subpanel average) [26]: 31.62 µM
- GI50 [27]: 2560 nM
- TGI (subpanel average) [27]: 12.07 µM

SMILES: CNC(=O)c1cc(Oc2ccc(NC(=O)Nc3ccc(Cl)c(C(F)(F)F)c3)cc2)ccn1 [Sorafenib, sorafenib]
- GI50 [17]: 3.16 µM
- GI50 [18]: 2510 nM
- GI50 [19]: 2510 nM
- GI50 [20]: 2.51 µM
- GI50 [21]: 2510 nM
- GI50 [22]: 3.16 µM
- GI50 [23]: 3.16 µM
- GI50 [24]: 3.16 µM
- GI50 [25]: 3.16 µM
- GI50 [26]: 2.58 µM
- CC50 [26]: 69.9 µM
- TGI (subpanel average) [26]: 10.27 µM
- GI50 [27]: 1910 nM
- CC50 [27]: > 100 µM
- TGI (subpanel average) [27]: 42.12 µM

From publication PMC8288134, “Synthesis, potential antitumor activity, cell cycle analysis, and multitarget mechanisms of novel hydrazones incorporating a 4-methylsulfonylbenzene scaffold: a molecular docking study” (Journal of Enzyme Inhibition and Medicinal Chemistry, 2021)
